Structures can show the parent of a compound that is named as a salt. Where two headings read alike, the source gives them in different places.
Columns and labels:
[1] = tested on: mono-methyl arginine in RKO cells; assay: RKO Methylation Assay, In Cell Western (ICW) for detection of mono-methyl arginine and DNA content; format: cell-based; settings: for EC30: Homo sapiens, RKO, 72 h
How it was run: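 RKO cells were treated with compound for 72 hours at 37 °C, methanol-fixed and stained overnight at 4 °C with anti-mono-methyl arginine (1:200), with DRAQ5 for DNA. Odyssey 800/700 nm intensity ratio was normalized to DMSO and 20 μM reference-compound controls. EC30 from triplicate nine-point curves.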

[2] = target: full-length human PRMT6 (Flag- and His-tagged) (Homo sapiens, UniProt Q96LA8); assay: PRMT6 Biochemical Assay (3H-SAM Flashplate, peptide substrate); settings: read-out: Biochemical IC50 PRMT6
How it was run: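 Flag/His-tagged full-length human PRMT6 (1 nM) preincubated with compound 30 min at room temperature in Bicine pH 7.6 buffer, then reaction started with 3H-SAM 200 nM plus unlabeled SAM 250 nM and biotinylated H4 36-50 peptide (K44me1) 75 nM; 2% DMSO. Quenched with 400 uM cold SAM; labeled peptide captured on streptavidin Flashplate, counted; % inhibition vs DMSO and 1 mM SAH controls fit by 3- or 4-parameter curve.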

[3] = RKO cells, 72 hours incubation, mono-methyl arginine signal normalised to DNA content, single experiment or average of multiple experiments, read-out: In Cell Western EC30
[4] = single experiment or average of multiple experiments
[5] = RKO cells, 72 hours compound incubation, mono-methyl arginine signal normalised to DNA content (DRAQ5), percent activation vs 20 μM reference compound, read-out: In Cell Western EC30
[6] = read-out: In Cell Western EC30, RKO cells, 72 hours compound incubation, mono-methyl arginine signal normalised to DNA content (DRAQ5), percent activation vs 20 μM reference compound
[7] = read-out: In Cell Western EC30, RKO cells, 72 hours incubation, mono-methyl arginine signal normalised to DNA content, single experiment or average of multiple experiments

Sequence of full-length human PRMT6 (Flag- and His-tagged) (Q96LA8 with tags, fused parts or gaps): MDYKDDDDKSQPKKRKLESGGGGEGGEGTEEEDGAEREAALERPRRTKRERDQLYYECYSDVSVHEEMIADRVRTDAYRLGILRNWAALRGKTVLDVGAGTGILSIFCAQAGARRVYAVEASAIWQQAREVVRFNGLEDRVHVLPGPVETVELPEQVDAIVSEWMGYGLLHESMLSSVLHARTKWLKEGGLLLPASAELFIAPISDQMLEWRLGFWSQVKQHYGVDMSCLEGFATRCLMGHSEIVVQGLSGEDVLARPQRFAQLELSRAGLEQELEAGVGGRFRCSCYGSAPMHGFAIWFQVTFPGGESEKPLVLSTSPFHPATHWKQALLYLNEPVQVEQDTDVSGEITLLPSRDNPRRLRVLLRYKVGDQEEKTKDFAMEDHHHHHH

| Structure (SMILES) | EC30 [1, 3] | In Cell Western EC30 ([1]; RKO cells, 72 hours compound incubation, mono-methyl arginine signal normalised to DNA content (DRAQ5), percent activation vs 20 μM reference compound) | IC50 [2, 4] | EC30 [1, 5] | IC50 [2] | EC30 [1, 6] | EC30 [1, 7] |
| --- | --- | --- | --- | --- | --- | --- | --- |
| CN(CCN)Cc1n[nH]cc1C1CCC(N2CCOCC2)CC1 (centres unmarked) [Compound 44, N^1-methyl-N^1-((4-(4-morpholinocyclohexyl)-1H-pyrazol-3-yl)methyl)ethane-1,2-diamine] | 4.57 µM | B (“B” indicates an EC30 of 3.01-12.00 μM) | 0.02 µM | – | – | – | – |
| CN(CCN)Cc1c[nH]nc1C1CCC2(CCCC2)CC1 [Compound 45] | 0.054 µM | – | 0.0056 µM | < 3 µM | < 0.1 µM | – | – |
| CNCCN(C)Cc1c[nH]nc1C1CCC2(CCCCC2)CC1 [Compound 46] | 0.008 µM | – | 0.0122 µM | < 3 µM | < 0.1 µM | – | – |
| CNCCN(C)Cc1cn(C)nc1C1CCC2(CCCC2)CC1 [Compound 47] | 0.052 µM | – | 0.0173 µM | – | < 0.1 µM | – | – |
| CNCCN(C)Cc1c[nH]nc1C1CCC2(CCCC2)CC1 [Compound 48] | 0.014 µM | – | 0.0178 µM | < 3 µM | < 0.1 µM | – | – |
| CNCCN(C)Cc1cnn(C)c1C1CCC2(CCCC2)CC1 [Compound 49] | 0.05 µM | – | 0.0199 µM | – | < 0.1 µM | – | – |
| CNCCN(C)Cc1c[nH]nc1C1CCC(C(C)C)CC1 (centres unmarked) [Compound 50] | 0.027 µM | – | 0.0206 µM | < 3 µM | < 0.1 µM | – | – |
| CNCCN(C)Cc1c[nH]nc1C1CCC2(CCCO2)CC1 (centres unmarked) [Compound 51] | 0.052 µM | – | 0.0239 µM | < 3 µM | < 0.1 µM | – | – |
| CNCCN(C)Cc1c[nH]nc1C1CCC(C)(C)CC1 [Compound 52] | 0.041 µM | – | 0.0243 µM | – | < 0.1 µM | – | – |
| CNCCN(C)Cc1c[nH]nc1C1CCC(COC)CC1 (centres unmarked) [Compound 53] | 0.017 µM | – | 0.038 µM | < 3 µM | < 0.1 µM | – | – |
| CNCCN(C)Cc1c[nH]nc1C1CCC2(CCOC2)CC1 (centres unmarked) [Compound 54] | 0.087 µM | – | 0.0382 µM | < 3 µM | < 0.1 µM | – | – |
| CNCCN(C)Cc1c[nH]nc1C1CCC(CCOC)CC1 (centres unmarked) [Compound 55] | 0.063 µM | – | 0.0404 µM | < 3 µM | < 0.1 µM | – | – |
| CNCCN(C)Cc1c[nH]nc1C1CCC(OC(C)C)CC1 (centres unmarked) [Compound 56] | 0.096 µM | – | 0.0618 µM | – | < 0.1 µM | – | – |
| CNCCN(C)Cc1c[nH]nc1C1CCC(COC)(COC)CC1 [Compound 57] | 0.025 µM | – | 0.0694 µM | < 3 µM | < 0.1 µM | – | – |
| CNCCN(C)Cc1c[nH]nc1C1CCC(OCCOC)CC1 (centres unmarked) [Compound 58] | 0.978 µM | – | 0.108 µM | – | < 0.1 µM | – | – |
| CNCCN(C)Cc1c[nH]nc1C1CC(C)(C)OC(C)(C)C1 [Compound 59] | 0.357 µM | – | 0.128 µM | – | 0.101 to 1 µM | – | – |
| CNCCN(C)Cc1c[nH]nc1C1CCC(COCCOC)(COCCOC)CC1 [Compound 60] | 2.84 µM | – | 0.155 µM | < 3 µM | 0.101 to 1 µM | – | – |

| Structure (SMILES) | EC30 [1, 3] | In Cell Western EC30 ([1]; RKO cells, 72 hours compound incubation, mono-methyl arginine signal normalised to DNA content (DRAQ5), percent activation vs 20 μM reference compound) | IC50 [2, 4] | EC30 [1, 5] | IC50 [2] | EC30 [1, 6] | EC30 [1, 7] |
| --- | --- | --- | --- | --- | --- | --- | --- |
| CNCCN(C)Cc1c[nH]nc1C1CCC(COC(C)C)(COC(C)C)CC1 [Compound 61] | 0.149 µM | – | 0.0491 µM | < 3 µM | < 0.1 µM | – | – |
| CNCCN(C)Cc1c[nH]nc1C1CCC2(CCCCC2)OC1 (centres unmarked) [Compound 62] | 0.169 µM | – | 0.029 µM | < 3 µM | < 0.1 µM | – | – |
| CNCCN(C)Cc1c[nH]nc1C1CCC2(CC1)CC(C)OC(C)C2 (centres unmarked) [Compound 63] | 1.09 µM | – | 0.0121 µM | < 3 µM | < 0.1 µM | – | – |
| CNCCN(C)Cc1c[nH]nc1C1CCC2(CCC(C)(C)CC2)OC1 (centres unmarked) [Compound 65] | 0.0775 µM | – | 0.0419 µM | < 3 µM | < 0.1 µM | – | – |
| CNCCN(C)Cc1c[nH]nc1C1CCC(Oc2ccccc2)CC1 (centres unmarked) [Compound 67] | 0.081 µM | – | 0.018 µM | < 3 µM | < 0.1 µM | – | – |
| CCC(CC)OC1CCC(c2n[nH]cc2CN(C)CCNC)CC1 (centres unmarked) [Compound 70] | 0.05 µM | – | 0.044 µM | < 3 µM | < 0.1 µM | – | – |
| CNCCN(C)Cc1c[nH]nc1C1CC(COC)C(C)(C)C(COC)C1 (centres unmarked) [Compound 86] | 0.0168 µM | – | 3.41 µM | < 3 µM | 3.01 to 10 µM | – | – |
| CCOCC1CC(c2n[nH]cc2CN(C)CCNC)CC(COCC)C1(C)C (centres unmarked) [Compound 87] | 2.53 µM | – | 3.73 µM | < 3 µM | 3.01 to 10 µM | – | – |
| CNCCN(C)Cc1c[nH]nc1C1CCC(C)(C)C(C(=O)NCC(C)C)C1 (centres unmarked) [Compound 90] | 0.316 µM | – | 0.122 µM | < 3 µM | 0.101 to 1 µM | – | – |
| CNCCN(C)Cc1c[nH]nc1C1CCC(C)(C)C(C(=O)NCCC(C)C)C1 (centres unmarked) [Compound 91] | 2.06 µM | – | 0.0631 µM | < 3 µM | < 0.1 µM | – | – |
| CNCCN(C)Cc1c[nH]nc1C1CCC(C)(C)C(C(=O)NCc2ccccc2)C1 (centres unmarked) [Compound 92] | 2.17 µM | – | 0.049 µM | < 3 µM | < 0.1 µM | – | – |
| CNCCN(C)Cc1c[nH]nc1C1CCC(C)(C)C(COCC(C)C)C1 (centres unmarked) [Compound 95] | 0.122 µM | – | 0.0692 µM | < 3 µM | < 0.1 µM | – | – |
| CNCCN(C)Cc1c[nH]nc1[C@H]1CC[C@@]2(CC1)CC(C)(C)CO2 [Compound 133, Methyl[2-(methylamino)ethyl]([3-[(5s,8s)-3,3-dimethyl-1-oxaspiro[4.5]decan-8-yl]-1H-pyrazol-4-yl]methyl)amine] | – | – | 0.0124 µM | – | < 0.1 µM | < 3 µM | 0.0438 µM |
| CNCCN(C)Cc1c[nH]nc1[C@H]1CC[C@]2(CC1)CC(C)(C)CO2 [Compound 134, methyl[2-(methylamino)ethyl]([3-[(5r,8r)-3,3-dimethyl-1-oxaspiro[4.5]decan-8-yl]-1H-pyrazol-4-yl]methyl)amine] | – | – | 0.0351 µM | – | < 0.1 µM | < 3 µM | 0.0332 µM |
| CNCCN(C)Cc1ccnn1C1CCC2(CC1)CC(C)(C)CO2 (centres unmarked) [Compound 274, trifluoroacetate] | – | – | 0.103 µM | – | 0.101 to 1 µM | < 3 µM | 0.0168 µM |
| CNCCN(C)Cc1ccnn1C1CCC2(CCCC2)CC1 [Compound 275, Methyl[2-(methylamino)ethyl][(1-[spiro[4.5]decan-8-yl]-1H-pyrazol-5-yl)methyl]amine trifluoroacetate] | – | – | 0.0186 µM | – | < 0.1 µM | < 3 µM | 0.084 µM |
